Reference: patent publication EP0758233B1, “PDE IV INHIBITORS FOR TREATING MULTIPLE SCLEROSIS” (SCHERING AKTIENGESELLSCHAFT, priority 1994, dated 1995)

Experiments:
[1] = system: encephalitogenic CD4+ MBP-specific rat TCL (L1402); test: TNF/LT production by rat MBP-specific T-cell line, cytotoxicity bioassay; type: cell-based; details: stereospecificity, (-)- versus (+)-enantiomer
From the text: To assess the ability of rolipram alone or in various combinations as described to modify autoimmune processes, we investigated its influence on TNF production in vitro by MBP-specific T-cell lines from MS patients and Lewis rats. MBP is a major candidate antigen in MS, and T-cell-mediated immunity is of crucial importance in its pathogenesis. Similar to EAE, MBP-specific T-cells in humans are often cytotoxic, of Th1 type secreting interferon (IFN)-gamma and TNF/LT, and recognize epitopes that are also encephalitogenic in EAE.
Similar results were found using an encephalitogenic CD4+ MBP-specific rat TCL (L1402). […] Previous investigations had shown that inhibition of cAMP PDE by rolipram is stereospecific.
TNF and LT may both be produced by autoactive T-cells. CD4+ cells have been reported to be the major source of TFN in autoimmune insulitis of NOD mice. The cytokine bioassay for TNF/LT detection employed here is sensitive to TNF and LT, but is 200 times more sensitive to the former.

[2] = system: Experimental Allergic Encephalomyelitis (EAE); test: Prevention of Experimental Allergic Encephalomyelitis (EAE) in immunized marmosets; type: in vivo, Callithrix jacchus (common marmoset); details: treatment stopped on day 60 following immunization; two marmosets; day counted from withdrawal
active EAE = test: Treatment of active (chronic) EAE in a marmoset; type: in vivo, Callithrix jacchus (common marmoset); details: one marmoset with chronic EAE; escalating doses of Rolipram in DMSO
[3] = system: adoptive cell transfer (tEAE); test: EAE after adoptive cell transfer (tEAE) in Lewis rats; type: in vivo; details: treatment after onset of symptoms; n = 5
Description: The results of our in vivo findings prompted us to perform treatment experiments in EAE after active immunization (aEAE) and adoptive cell transfer (tEAE) in Lewis rats. […] In clinically manifest EAE, treatment was started within 6 hours of the onset of symptoms. […] In tEAE similar effects were observed. […] Treatment after onset of symptoms also lead to a marked reduction in maximum severity (treated group: MMS 0.7 ± 0.10, n = 5; vehicle treated matched controls 2.45 ± 0.56, n = 5, p 0.01).

SMILES | times more effective than the (+)-enantiomer (inhibition of TNF/LT production) [1] [times] | clinical signs of EAE following withdrawal of Rolipram [2] [days] | MRI improvement following initiating Rolipram treatment (active EAE) [days] | marked improvement (physical symptoms) after initiating treatment (active EAE) [days] | maximum severity, MMS [3]
COc1ccc(C2CNC(=O)C2)cc1OC1CCCC1 (single isomer, unassigned; (-)) [(-)-rolipram] | 55 |  |  |  | 
COc1ccc(C2CNC(=O)C2)cc1OC1CCCC1 (centres unmarked) [Rolipram, 4-[(3-cyclopentyloxy)-4-methoxyphenyl)-2-pyrrolidinone] |  | 17 | 14 | 10 | 0.7 ± 0.10
